This is an account of results in patent publication EP4685144A1, “NON-FLUORESCENT COMPOUND AND USES THEREOF” (SFC Co., Ltd., priority 2023, dated 2024).

Data set [1] is described as follows: Photophysical properties of the non-fluorescent compounds in DMSO solvent. Set-up: εmax: unit not given here. As to conditions: for Quantum Yield(Φ) / εmax / λabs: DMSO solvent. Format: physicochemical. From the text:
The photophysical properties measured in DMSO solvent for the non-fluorescent compounds synthesized according to the above synthesis examples are shown in Table 1 below.

The conditions of data set [2]: commercially available quencher; cited from earlier work.

Take `CCn1c(=CC=CC2=[N+](CCCC(=O)O)c3c(ccc4c3c3ccccc3n4C)C2(C)C)c2cccc3cccc1c32` [Dye 17]: in data set [1], the maximum absorption wavelength entry is reported as “above 650 nm”, the “Quantum Yield(Φ)” value is 0.002, the εmax is recorded as 37,000 and the λabs was 672 nm.
As to `C[n+]1c(C=CC=c2c3cccc4cccc(c43)n2CCCCCC(=O)O)oc2c3ccccc3ccc21` [Dye 60], in data set [1], the “Quantum Yield(Φ)” value was 0.007, the εmax was 42,000 and the λabs is listed as 600 nm.
For the compound `CC[n+]1c(C=CC=c2c3cccc4cccc(c43)n2CCCCCC(=O)O)sc2ccc3ccccc3c21` [Dye 61], in data set [1], the “Quantum Yield(Φ)” value is given as 0.002, the εmax is 24,000 and the λabs was 630 nm.
On to `Cn1c(=CC=CC2=[N+](CCCCCC(=O)O)c3ccc4sc5ccccc5c4c3C2(C)C)c2cccc3cccc1c32` [Dye 48], for which, in data set [1], the “Quantum Yield(Φ)” value worked out at 0.001, the εmax is 65,000 and the λabs is on record as 690 nm.
For `Cn1c(=CC=CC2=[N+](CCCCCC(=O)O)c3ccccc3C2(C)C)c2cccc3cccc1c32` [Dye 6], in that order: 0.005, 75,000 and 672 nm.
As to `C[n+]1c(C=CC=c2c3cccc4cccc(c43)n2CCCCCC(=O)O)sc2ccccc21` [Dye 2], in data set [1], the maximum absorption wavelength entry is “above 650 nm”, the “Quantum Yield(Φ)” value worked out at 0.006, the εmax is on record as 28,000 and the λabs is 664 nm.
`Cn1c(=CC=CC2=[N+](CCCCCC(=O)O)c3c(ccc4ccccc34)C2(C)C)c2cccc3cccc1c32` [Dye 16]: in data set [1], the maximum absorption wavelength result is “above 650 nm”, the “Quantum Yield(Φ)” value is 0.001, the εmax is 68,000 and the λabs was 692 nm.
For the compound `CCn1c(=CC=CC=CC2=[N+](CCCCCC(=O)O)c3cc4c(cc3C2(C)C)-c2ccccc2C4(C)C)c2cccc3cccc1c32` [Dye 18], in data set [1], the “Quantum Yield(Φ)” value was 0.005, the εmax was 74,000 and the λabs was 680 nm.
With `CCN(CC)c1ccc2nc3ccc(/N=N/c4ccc(N(C)CCCC(=O)O)cc4)cc3[n+](-c3ccccc3)c2c1` [BHQ-3], the “absorbs light in the range” value in data set [2] is 650-700 nm.
In the case of `Cn1c(=CC=CC2=Nc3c(ccc[n+]3CCCCCC(=O)O)C2(C)C)c2cccc3cccc1c32` [Dye 12], in data set [1], the “Quantum Yield(Φ)” value stood at 0.002, the εmax is given as 53,000 and the λabs is 676 nm.
